# Laboratory results published in US20200038412A1, “METHODS OF TREATING ALZHEIMER'S DISEASE USING AMINOSTEROL COMPOSITIONS” (Enterin, Inc., priority 2018, published 2020).
# “And” between values parts separate entries of the source, which are not always exact repeats. Equal values may be shown once.
# Assays:
# αS = αS (Homo sapiens, UniProt P37840); conditions: in vitro; cited from earlier work
# [1] = test system: patients with PD and constipation; experiment: Phase 2 trial Stage 2: CNS symptoms (UPDRS, MMSE, PDHQ, BDI-II, sleep diary); type: in vivo, human; conditions: for patients in whom hallucinations and delusions improved or disappeared during treatment: 6 patients with hallucinations (5) or delusions (1) at baseline; for UPDRS Part 1 (NMS): baseline 11.6 (6.51); for UPDRS Total: baseline 64.4 (23.72); for BDI-II: baseline 10.9 (7.12); for MMSE: baseline 28.4 (1.75)
# Source text: Exploratory end-points, in addition to constipation, included for example, (i) depression assessed using the Beck Depression Inventory (BDI-II) (Steer et al. 2000) and Unified Parkinson's Disease Rating Scale (UPDRS); (ii) cognition assessed using the Mini Mental State Examination (MMSE) (Palsteia et al. 2018), Unified Parkinson's Disease Rating Scale (UPDRS), and Trail Making Test (TMT); (iii) sleep and REM-behavior disorder (RBD) using a daily sleep diary, I-Button Temperature Assessment, a REM sleep behavior disorder (RBD) questionnaire (RBDQ) (Stiasny-Kolster et al. 2007), and the UPDRS; (iv) hallucinations assessed using the PD hallucinations questionnaire (PDHQ) (Papapetropoulos et al. 2008), the UPDRS, and direct questioning; (v) fatigue using the Parkinson's Disease Fatigue Scale (PFS-16) and the UPDRS; (vi) motor functions using the UPDRS; and (vii) non-motor functions using the UPDRS.
# Assessments were made at baseline and at the end of the fixed dose and washout periods. Circadian system status was evaluated by continuously monitoring wrist skin temperature (Thermochron iButton DS1921H; Maxim, Dallas) following published procedures (Sarabia et al. 2008).
# An exploratory analysis was done with respect to the sleep data, the body temperature data, mood, fatigue, hallucinations, cognition and other motor and non-motor symptoms of PD. Continuous measurements within a subject were compared with a paired t-test and continuous measurements between subject groups were compared with a two-group t-test. Categorical data were compared with a chi-squared test or a Fisher's exact test if the expected cell counts are too small for a chi-squared test.
# CNS symptoms were evaluated at baseline and at the end of the fixed dose period and the wash-out period (Table 12). Total UPDRS score was 64.4 at baseline, 60.6 at the end of the fixed dose period and 55.7 at the end of the wash-out period (p=0.002); similarly, the motor component of the UPDRS improved from 35.3 at baseline to 33.3 at the end of fixed dose to 30.2 at the end of wash-out (p=0.006). MMSE improved from 28.4 at baseline to 28.7 during treatment and to 29.3 during wash-out (p=0.0006). […] PDHQ improved from 1.3 at baseline to 1.8 during treatment and 0.9 during wash-out (p=0.03). Hallucinations were reported by 5 patients at baseline and delusions in 1 patient. […] The frequency of arm or leg thrashing reported in the sleep diary diminished progressively from 2.2 episodes/week at baseline to 0 at maximal dose. […] Unlike stool-related indices, the improvement in many CNS symptoms persisted during wash-out.
# [2] = test system: patients with PD and constipation; experiment: Phase 2 trial Stage 1: adverse events; type: in vivo, human
# Source text: Tolerability limits included diarrhea or vomiting.
# [3] = Preclinical oral dosing in rats; type: in vivo
# [4] = Preclinical oral dosing in dogs; type: in vivo
# [5] = Stage 2, end of fixed dose, mean (SD), n = 34
# [6] = Stage 2, end of wash-out, mean (SD)
# [7] = Stage 2, fixed dose, mean (SD), n = 34
# [8] = Stage 1, 10 dosed, unrelated to ENT-01
structure (smiles),measurement,setting,value
"CC(C)[C@@H](CC[C@@H](C)[C@H]1CC[C@H]2[C@@H]3[C@H](O)C[C@H]4C[C@@H](NCCCNCCCCN)CC[C@]4(C)[C@H]3CC[C@]12C)OS(=O)(=O)O (single isomer, unassigned) [squalamine (ENT-01), squalamine]",displacement of αS from membranes,αS,can displace αS from membranes
same,patients in whom hallucinations and delusions improved or disappeared during treatment,[1],5 of 6
same,patients in whom hallucinations and delusions improved or disappeared during treatment,[1]; listed as ENT-01,five
same,patients in whom hallucinations and delusions improved or disappeared during treatment,[1]; listed as aminosterol,five and 5 of 6
same,increase of total sleep time,[1]; 7.1 hours at baseline to 8.4 hours at 250 mg,18%
same,UPDRS Part 1 (NMS),[1]; [5],10.6 (6.18))
same,UPDRS Total,[1]; [5],60.6
same,UPDRS Total,"[1]; Stage 2, end of fixed dose, mean (SD), n = 34, listed as Squalamine (ENT-01)",60.6 (25.60)
same,UPDRS Part 1 (NMS),[1]; [6],9.5 (5.27)
same,UPDRS Total,[1]; [6],55.7
same,UPDRS Total,"[1]; Stage 2, end of wash-out, mean (SD), listed as Squalamine (ENT-01)",55.7 (23.69)
same,BDI-II,[1]; [7],9.9 (6.45)
same,MMSE,[1]; [7],28.7 (1.9)
same,PDHQ,"[1]; Stage 2, wash-out, mean (SD), baseline 1.3 (2.99)",0.9 (2.33)
same,BDI-II,"[1]; Stage 2, wash-out, mean (SD)",8.7 (5.19)
same,MMSE,"[1]; Stage 2, wash-out, mean (SD)",29.3 (1.06)
same,frequency of arm or leg thrashing reported in the sleep diary,"[1]; at maximal dose, baseline 2.2",0 episodes/week
same,improvement of frequency of arm or leg thrashing,[1]; baseline 2.2 episodes/week to 0 at maximal dose,100%
same,improvement in depression scoring (BDI-II),[1]; baseline 10.9 to wash-out 8.7,20%
same,improvement of UPDRS Part 1,"[1]; baseline 11.6 to wash-out 9.5, listed as aminosterol",~20% and 18%
same,improvement of total UPDRS score,[1]; baseline 64.4 to end of wash-out 55.7,13.5%
same,total sleep time versus baseline,[1]; beyond 125 mg,consistently higher than baseline
same,time patient remained free of hallucinations following cessation of dosing,[1]; one patient,1 month
same,dose at which hallucinations disappeared,"[1]; one patient, colonic prokinetic dose of 175 mg not reached",100 mg
same,AEs confined to the GI tract,[2]; Stage 1,88%
same,Diarrhea (common adverse events by dose),"[2]; Stage 1, 25 mg",1
same,Nausea (common adverse events by dose),"[2]; Stage 1, 25 mg",0
same,Vomiting (common adverse events by dose),"[2]; Stage 1, 25 mg",0
same,Diarrhea (common adverse events by dose),"[2]; Stage 1, 50 mg",1
same,Nausea (common adverse events by dose),"[2]; Stage 1, 50 mg",0
same,Vomiting (common adverse events by dose),"[2]; Stage 1, 50 mg",0
same,Diarrhea (common adverse events by dose),"[2]; Stage 1, 75 mg",1
same,Nausea (common adverse events by dose),"[2]; Stage 1, 75 mg",0
same,Vomiting (common adverse events by dose),"[2]; Stage 1, 75 mg",0
same,Diarrhea (common adverse events by dose),"[2]; Stage 1, 100 mg",0
same,Nausea (common adverse events by dose),"[2]; Stage 1, 100 mg",1
same,Vomiting (common adverse events by dose),"[2]; Stage 1, 100 mg",1
same,Diarrhea (common adverse events by dose),"[2]; Stage 1, 125 mg",1
same,Nausea (common adverse events by dose),"[2]; Stage 1, 125 mg",2
same,Vomiting (common adverse events by dose),"[2]; Stage 1, 125 mg",1
same,Diarrhea (common adverse events by dose),"[2]; Stage 1, 150 mg",1
same,Nausea (common adverse events by dose),"[2]; Stage 1, 150 mg",0
same,Vomiting (common adverse events by dose),"[2]; Stage 1, 150 mg",0
same,Diarrhea (common adverse events by dose),"[2]; Stage 1, 175 mg",1
same,Nausea (common adverse events by dose),"[2]; Stage 1, 175 mg",1
same,Vomiting (common adverse events by dose),"[2]; Stage 1, 175 mg",0
same,Diarrhea (common adverse events by dose),"[2]; Stage 1, 200 mg",0
same,Nausea (common adverse events by dose),"[2]; Stage 1, 200 mg",2
same,Vomiting (common adverse events by dose),"[2]; Stage 1, 200 mg",0
same,patients with diarrhea,"[2]; Stage 1, 4/10 patients",40%
same,patients with nausea,"[2]; Stage 1, 4/10 patients",40%
same,"Abdominal pain, Mild","[2]; Stage 1, 10 dosed","2 (20) n, %"
same,"Abdominal pain, Moderate","[2]; Stage 1, 10 dosed","3 (30) n, %"
same,"Blood in urine, Moderate","[2]; Stage 1, 10 dosed","0 n, %"
same,"Diarrhea, Mild","[2]; Stage 1, 10 dosed","1 (10) n, %"
same,"Diarrhea, Moderate","[2]; Stage 1, 10 dosed","3 (30) n, %"
same,"Diarrhea, Severe","[2]; Stage 1, 10 dosed","0 n, %"
same,"Difficulty falling asleep, Mild","[2]; Stage 1, 10 dosed","0 n, %"
same,"Difficulty falling asleep, Moderate","[2]; Stage 1, 10 dosed","0 n, %"
same,"Dizziness, Mild","[2]; Stage 1, 10 dosed","0 n, %"
same,"Dizziness, Moderate","[2]; Stage 1, 10 dosed","0 n, %"
same,"Eye infection, Mild","[2]; Stage 1, 10 dosed","0 n, %"
same,"Eye infection, Moderate","[2]; Stage 1, 10 dosed","0 n, %"
same,"Flatulence, Mild","[2]; Stage 1, 10 dosed","2 (20) n, %"
same,"Flatulence, Moderate","[2]; Stage 1, 10 dosed","0 n, %"
same,"Headache, Mild","[2]; Stage 1, 10 dosed","1 (10) n, %"
same,"Headache, Moderate","[2]; Stage 1, 10 dosed","0 n, %"
same,"Increased urinary frequency, Mild","[2]; Stage 1, 10 dosed","0 n, %"
same,"Increased urinary frequency, Moderate","[2]; Stage 1, 10 dosed","0 n, %"
same,"Loss of appetite, Moderate","[2]; Stage 1, 10 dosed","0 n, %"
same,"Lower GI bleed, Severe","[2]; Stage 1, 10 dosed","0 n, %"
same,"Nausea, Mild","[2]; Stage 1, 10 dosed","4 (40) n, %"
same,"Nausea, Moderate","[2]; Stage 1, 10 dosed","0 n, %"
same,"Skin lesions-rash, Mild","[2]; Stage 1, 10 dosed","0 n, %"
same,"Skin lesions-rash, Moderate","[2]; Stage 1, 10 dosed","0 n, %"
same,"Urinary retention, Mild","[2]; Stage 1, 10 dosed","0 n, %"
same,"Urinary retention, Moderate","[2]; Stage 1, 10 dosed","0 n, %"
same,"Urinary tract infection, Mild","[2]; Stage 1, 10 dosed","0 n, %"
same,"Urinary tract infection, Moderate","[2]; Stage 1, 10 dosed","0 n, %"
same,"Vomiting, Mild","[2]; Stage 1, 10 dosed","1 (10) n, %"
same,"Vomiting, Moderate","[2]; Stage 1, 10 dosed","0 n, %"
same,"Worsening acid reflux, Mild","[2]; Stage 1, 10 dosed","0 n, %"
same,"Worsening acid reflux, Moderate","[2]; Stage 1, 10 dosed","0 n, %"
same,"Worsening hemorrhoid, Mild","[2]; Stage 1, 10 dosed","0 n, %"
same,"Worsening hemorrhoid, Moderate","[2]; Stage 1, 10 dosed","0 n, %"
same,"Blood in urine, Mild",[2]; [8],"1 (10) n, %"
same,"Loss of appetite, Mild",[2]; [8],"1 (10) n, %"
same,absorption from the intestine,"[3]; rat, portal blood concentrations following oral dosing of radioactive ENT-01",low
same,bioavailability,[3]; rats,limited bioavailability
same,tolerability,[3]; rats,well tolerated
same,bioavailability,[4],limited bioavailability
same,tolerability,[4],well tolerated
same,oral bioavailability,[4]; preclinical studies,about 0.1%
